According to patent US20260317344A1, “EGFR INHIBITORS FOR TREATING DISEASE” (BLOSSOMHILL THERAPEUTICS, INC., priority 2023, published 2026):
Like-named read-outs stand apart in the source and are kept apart here.

Key:
[1] = biological target: EGFR (L858R/T790M/C797S) (Homo sapiens, UniProt P00533, C797S/L858R/T790M); assay: HotSpot radiometric kinase assay, inhibition of EGFR L858R/T790M/C797S mutant; type: biochemical; conditions: 33P ATP, room temperature, 120 m
Experimental: (§1) Biochemical Assays for inhibition of wild-type and mutant EGFRs
(§2) Briefly, specific kinase/substrate pairs along with required cofactors were prepared in reaction buffer; 20 mM HEPES pH 7.5, 10 mM […], 1 mM EGTA, 0.02% Brij35, 0.02 mg/ml BSA, 0.1 mM Na3VO4, 2 mM DTT, 1% DMSO. Compounds were delivered into the reaction, followed ~20 minutes later by addition of a mixture of ATP (Sigma, St. Louis MO) and ^33P ATP (Perkin Elmer, Waltham MA) to a final concentration of […]. Reactions were carried out at room temperature for 120 m, followed by spotting of the reactions onto P81 ion exchange filter paper (Whatman Inc., Piscataway, NJ). Unbound phosphate was removed by extensive washing of filters in 0.75% phosphoric acid. […] IC50 values and curve fits were obtained using Prism (GraphPad Software).

[2] = biological target: EGFR (D746-750) (Homo sapiens, UniProt P00533, DEL746-750); assay: HotSpot radiometric kinase assay, inhibition of EGFR 746-750 mutant; type: biochemical; conditions: 33P ATP, room temperature, 120 m
EGFR (D746-750), sequence (P00533 with tags, fused parts or gaps DEL746-750): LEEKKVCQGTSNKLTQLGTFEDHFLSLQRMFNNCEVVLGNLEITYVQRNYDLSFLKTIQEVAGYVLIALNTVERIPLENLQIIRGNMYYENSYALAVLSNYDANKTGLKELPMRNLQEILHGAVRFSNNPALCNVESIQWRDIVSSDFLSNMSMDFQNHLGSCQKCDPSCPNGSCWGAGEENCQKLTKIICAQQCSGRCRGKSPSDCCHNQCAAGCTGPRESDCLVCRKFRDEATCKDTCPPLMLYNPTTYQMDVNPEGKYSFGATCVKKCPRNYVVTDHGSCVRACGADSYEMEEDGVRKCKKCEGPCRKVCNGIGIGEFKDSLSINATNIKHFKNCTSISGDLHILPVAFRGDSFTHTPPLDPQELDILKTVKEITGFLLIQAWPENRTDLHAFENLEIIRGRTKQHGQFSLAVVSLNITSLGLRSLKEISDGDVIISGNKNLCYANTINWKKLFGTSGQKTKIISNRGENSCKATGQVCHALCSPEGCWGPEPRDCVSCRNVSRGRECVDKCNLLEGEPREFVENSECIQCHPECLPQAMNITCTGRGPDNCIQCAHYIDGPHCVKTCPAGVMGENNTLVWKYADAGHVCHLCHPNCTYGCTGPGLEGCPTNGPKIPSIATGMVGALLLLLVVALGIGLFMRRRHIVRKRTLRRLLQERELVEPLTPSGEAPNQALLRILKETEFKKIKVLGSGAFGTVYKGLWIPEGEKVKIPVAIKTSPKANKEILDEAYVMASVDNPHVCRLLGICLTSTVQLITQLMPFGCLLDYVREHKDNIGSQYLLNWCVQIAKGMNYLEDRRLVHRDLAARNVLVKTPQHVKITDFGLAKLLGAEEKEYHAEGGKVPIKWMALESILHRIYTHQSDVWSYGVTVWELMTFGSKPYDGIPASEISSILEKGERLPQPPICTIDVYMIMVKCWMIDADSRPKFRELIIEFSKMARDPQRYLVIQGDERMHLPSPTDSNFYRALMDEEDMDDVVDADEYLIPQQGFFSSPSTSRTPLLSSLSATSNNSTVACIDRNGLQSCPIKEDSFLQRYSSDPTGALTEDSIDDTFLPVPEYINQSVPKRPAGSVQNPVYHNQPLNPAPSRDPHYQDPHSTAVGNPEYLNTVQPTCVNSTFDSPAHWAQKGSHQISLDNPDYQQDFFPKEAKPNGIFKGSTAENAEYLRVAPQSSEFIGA
Experimental: as §1, §2

[3] = biological target: EGFR (D746-750/C797S) (Homo sapiens, UniProt P00533, C797S/DEL746-750); assay: HotSpot radiometric kinase assay, inhibition of EGFR 746-750/C797S mutant; type: biochemical; conditions: 33P ATP, room temperature, 120 m
Experimental: as §1, §2

[4] = biological target: EGFR (D770_N771insNPG) (Homo sapiens, UniProt P00533, INS770NPG); assay: HotSpot radiometric kinase assay, inhibition of EGFR (D770_N771insNPG) mutant; type: biochemical; conditions: 33P ATP, room temperature, 120 m
EGFR (D770_N771insNPG), sequence (P00533 with tags, fused parts or gaps INS770NPG limits assumed): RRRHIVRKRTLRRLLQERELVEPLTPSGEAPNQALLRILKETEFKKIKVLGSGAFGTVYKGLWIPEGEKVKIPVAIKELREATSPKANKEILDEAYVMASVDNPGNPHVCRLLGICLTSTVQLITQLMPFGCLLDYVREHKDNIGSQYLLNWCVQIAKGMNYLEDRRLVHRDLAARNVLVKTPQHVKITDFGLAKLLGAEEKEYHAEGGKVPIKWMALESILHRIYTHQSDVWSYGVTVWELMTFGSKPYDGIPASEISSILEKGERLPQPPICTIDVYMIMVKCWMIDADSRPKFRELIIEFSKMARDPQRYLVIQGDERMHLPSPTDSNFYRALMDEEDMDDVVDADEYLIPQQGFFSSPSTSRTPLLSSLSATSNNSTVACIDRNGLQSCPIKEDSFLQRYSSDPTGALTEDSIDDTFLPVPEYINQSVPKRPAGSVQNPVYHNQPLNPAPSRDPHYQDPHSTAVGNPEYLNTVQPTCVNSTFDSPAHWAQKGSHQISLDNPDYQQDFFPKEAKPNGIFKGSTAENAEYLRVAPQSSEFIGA
Experimental: as §1, §2

[5] = system: HCC827 cells; assay: 5-Day CellTiter Glo (CTG) cell proliferation assay, HCC827; type: cell-based; conditions: Homo sapiens, read-out: HCC827 IC50
Experimental: (§3) 5-Day CellTiter Glo (CTG) Cell Proliferation Assays (PC9, H1975, H827)
(§4) Cell proliferation assays were carried out in NSCLC cells with EGFR activation mutations. Both PC-9 cells and HCC827 cells (purchased from DSMZ) carry a Glu746-Ala750 deletion (d746-750) mutation in exon 19 of the EGFR gene and NCI-H1975 cells carry both L858R activation mutation and T790M gatekeeper mutation in the EGFR gene. One thousand PC-9, NCI-H1975 or HCC827 cells/100 μL per well were seeded in 96-well black plate with transparent bottom and then treated with indicated compounds in a 9-dose dilution series dispensed using TECAN d300e liquid dispenser. Cells were incubated with compounds for 120 hours at 37° C. and 5% CO2. Cell proliferation was measured using CellTiter-Glo 2.0 luciferase-based ATP detection assay (Promega, Madison, WI) at […] per well following the manufacturer's protocol. Plates were then read on a TECAN Sparks multimode microplate reader. Data was analyzed using GraphPad Prism 9 (GraphPad Software, San Diego, CA) to obtain IC50 values.

[6] = biological target: T1, pEGFR, PC-9 cells (d746-750 EGFR) (Homo sapiens, UniProt P00533, DEL746-750); assay: Cellular EGFR phosphorylation assay (LANCE Ultra TR-FRET) in PC-9 cells; type: cell-based; conditions: 4 hours at 37° C., read-out: PC-9 pEGFR IC50
T1 construct: pEGFR (Tyr1068) TR-FRET
T1 sequence (P00533 with tags, fused parts or gaps DEL746-750): as the sequence (P00533 with tags, fused parts or gaps DEL746-750) above
Experimental: (§5) Cellular EGFR Phosphorylation Assays
(§6) EGFR phosphorylation assays were conducted in NSCLC cells with EGFR activation mutations. PC-9 cells (purchased from Aldrich-Sigma) carry a Glu746-Ala750 deletion (d746-750) mutation in exon 19 of the EGFR gene and NCI-H1975 cells (purchased from ATCC) carry both L858R activation mutation and T790M gatekeeper mutation in the EGFR gene. A431 cells (purchased from ATCC) with amplification of wildtype EGFR, derived from epidermoid carcinoma, were used to measure the activity against wildtype EGFR. All cells were seeded in 96-well plates. For PC-9 and NCI-H1975 cells, 50 thousand cells were seeded per well. For A431 cells, 30 thousand cells were seeded per well. The next day, cells were exposed to compound for 4 hours at 37° C. and 5% CO2. Compounds were diluted in DMSO and added to cells in a 9-dose, 3-fold dilution, titration curve using TECAN d300e liquid dispenser. For A431 cells, 40 ng/mL of EGF was added to the media for the final 10 minutes of incubation. EGFR phosphorylation was measured using phospho-EGFR (Try1068) LANCE Ultra TR-FRET Detection Kit (TRF4015M) from PerkinElmer according to manufacturer's instructions. In brief, cells were lysed with 40 μL of lysis buffer plus 1× Halt protease and phosphatase inhibitor cocktail (Thermo 78441) and by incubation at room temperature for 1 h on a microplate shaker (350 rpm). 15 μ L of cell lysate was transferred to 384-well white plate and 5 μL of Europium- and ULight-labeled antibodies diluted in 1× detection buffer was added to each well. After 4-6 hours of incubation at room temperature, plates were then read on a TECAN Sparks multimode microplate reader. Data was analyzed using GraphPad Prism 9 (GraphPad Software, San Diego, CA) to obtain IC50 values.

[7] = system: NCI-H1975 cells; assay: 5-Day CellTiter Glo (CTG) cell proliferation assay, NCI-H1975; type: cell-based; conditions: Homo sapiens, read-out: H1975 IC50
Experimental: as §3, §4

[8] = system: PC-9 cells; assay: 5-Day CellTiter Glo (CTG) cell proliferation assay, PC-9; type: cell-based; conditions: Homo sapiens, read-out: PC-9 IC50
Experimental: as §3, §4

[9] = biological target: T2, pEGFR, A431 cells (wildtype EGFR) (Homo sapiens, UniProt P00533); assay: Cellular EGFR phosphorylation assay (LANCE Ultra TR-FRET) in A431 cells; type: cell-based; conditions: 4 hours at 37° C., 40 ng/mL EGF for the final 10 minutes, read-out: A431 pEGFR IC50
T2 construct: pEGFR (Tyr1068) TR-FRET
T2 sequence (P00533 25-1210): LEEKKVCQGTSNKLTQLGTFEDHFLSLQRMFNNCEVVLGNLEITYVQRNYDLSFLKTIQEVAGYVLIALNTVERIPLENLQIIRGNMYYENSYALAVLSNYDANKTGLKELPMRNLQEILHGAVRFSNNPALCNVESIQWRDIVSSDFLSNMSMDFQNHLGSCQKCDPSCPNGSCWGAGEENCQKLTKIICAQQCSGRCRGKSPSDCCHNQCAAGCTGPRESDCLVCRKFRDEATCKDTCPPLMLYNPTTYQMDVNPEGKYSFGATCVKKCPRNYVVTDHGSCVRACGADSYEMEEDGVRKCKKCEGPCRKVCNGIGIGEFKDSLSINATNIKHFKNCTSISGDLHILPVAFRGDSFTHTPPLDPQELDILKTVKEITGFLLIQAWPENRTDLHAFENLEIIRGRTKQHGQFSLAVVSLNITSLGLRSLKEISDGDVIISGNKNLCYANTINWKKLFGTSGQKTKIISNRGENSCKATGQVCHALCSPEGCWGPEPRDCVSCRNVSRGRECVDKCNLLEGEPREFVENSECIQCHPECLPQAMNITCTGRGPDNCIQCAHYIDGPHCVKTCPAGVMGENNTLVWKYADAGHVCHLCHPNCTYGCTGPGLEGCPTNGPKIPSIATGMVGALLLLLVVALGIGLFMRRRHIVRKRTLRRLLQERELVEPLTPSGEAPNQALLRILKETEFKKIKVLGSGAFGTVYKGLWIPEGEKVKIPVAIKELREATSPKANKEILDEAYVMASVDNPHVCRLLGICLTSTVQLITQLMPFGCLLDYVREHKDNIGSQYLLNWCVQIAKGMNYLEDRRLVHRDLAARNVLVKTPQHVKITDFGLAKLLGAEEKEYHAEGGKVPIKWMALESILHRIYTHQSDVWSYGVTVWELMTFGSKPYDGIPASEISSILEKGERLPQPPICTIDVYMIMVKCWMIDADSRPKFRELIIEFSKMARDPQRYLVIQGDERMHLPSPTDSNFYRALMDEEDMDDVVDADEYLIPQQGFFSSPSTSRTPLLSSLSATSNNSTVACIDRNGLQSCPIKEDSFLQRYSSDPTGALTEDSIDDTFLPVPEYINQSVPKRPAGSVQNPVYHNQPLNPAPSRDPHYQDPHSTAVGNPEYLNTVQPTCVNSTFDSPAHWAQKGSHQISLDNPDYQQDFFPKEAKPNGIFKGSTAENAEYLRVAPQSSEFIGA
Experimental: as §5, §6

[10] = biological target: T3, pEGFR, NCI-H1975 cells (L858R/T790M EGFR) (Homo sapiens, UniProt P00533, L858R/T790M); assay: Cellular EGFR phosphorylation assay (LANCE Ultra TR-FRET) in NCI-H1975 cells; type: cell-based; conditions: 4 hours at 37° C., read-out: H1975 pEGFR IC50
T3 construct: pEGFR (Tyr1068) TR-FRET
Experimental: as §5, §6

[11] = system: BaF3 cells with engineered EGFR L858R/T790M/C797S; assay: 3-Day CellTiter Glo (CTG) cell proliferation assay, BaF3 EGFR L858R/T790M/C797S; type: cell-based; conditions: Mus musculus, 3-day CTG proliferation, 72 hours
Experimental: 3-DAY CellTiter Glo (CTG) Cell Proliferation Assays (BaF3 Cell Lines)
Cell proliferation assays were carried out in BaF3 cells engineered with EGFR mutations. BaF3 cells with engineered EGFR L858R/T790M/C797S, EGFR L858R/C797S, or EGFR d746-750/T790M transgene, one thousand cells/50 μL per well were seeded in white 384-well plate, followed by treatment with indicated compounds in a 9-dose dilution series using TECAN d300e liquid dispenser. Cells were incubated with compounds for 72 hours at 37° C. and 5% CO2. Cell proliferation was measured using CellTiter-Gbo 2.0 luciferase-based ATP detection assay (Promega, Madison, WI) at 18 μL per well following the manufacturer's protocol. Plates were then read on a TECAN Sparks multimode microplate reader. Data was analyzed using GraphPad Prism 9 (GraphiPad Software, San Diego, CA) to obtain IC50 values.

[12] = HCC827 cells (d746-750 EGFR), 5-day CTG proliferation, 120 hours
[13] = NCI-H1975 cells (L858R/T790M EGFR), 5-day CTG proliferation, 120 hours
[14] = PC-9 cells (d746-750 EGFR), 5-day CTG proliferation, 120 hours

Compound | IC50 [1] [nM] | IC50 [2] [nM] | IC50 [3] [nM] | IC50 [4] [nM] | IC50 [5, 12] [nM] | IC50 [6] [nM] | IC50 [7, 13] [nM] | IC50 [8, 14] [nM] | IC50 [9] [nM] | IC50 [10] [nM] | also measured
Cc1nn(CCO)c2c1/C=C/c1n[nH]c3c(C)nc(cc13)-c1cnn(C)c1O[C@@H](C)CN(C)C2 [Ex. 51, 2-[(10S,17E)-8,10,12,16,20-pentamethyl-2,8,10,11,12,13-hexahydro-14H-5,3-(azenometheno)tripyrazolo[3,4-f:3′,4′-j:4″,3″-n][1,4]oxazacyclopentadecin-14-yl]ethan-1-ol] | 0.37 | 0.31 | 0.83 | 1.11 |  |  |  |  |  |  | 
Cc1nn(C)c2c1-c1cc3c(n[nH]c3c(C)n1)/C=C/c1c(OCC#N)nn([C@@H](C)CO)c1CN(C)C[C@H](C)O2 [Ex. 52] | 0.46 | 0.21 | 0.71 | 0.25 |  |  |  |  |  |  | 
Cc1nn([C@@H](C)CO)c2c1/C=C/c1n[nH]c3cnc(cc13)-c1c(C)nn(C)c1O[C@@H](C)CN(C)C2 [Ex. 46, (2S)-2-[(10S,17E)-6,8,10,12,16-pentamethyl-2,8,10,11,12,13-hexahydro-14H-5,3-(azenometheno)tripyrazolo[3,4-f:3′,4′-j:4″,3″-n][1,4]oxazacyclopentadecin-14-yl]propan-1-ol] | 0.23 | 0.15 | 0.4 | 0.36 |  |  |  |  |  |  | 
CCc1nn(CCO)c2c1/C=C/c1n[nH]c3cnc(cc13)-c1c(C)nn(C)c1O[C@H](C)CN(CC)C2 [Ex. 55, 2-[(10R,17E)-12,16-diethyl-6,8,10-trimethyl-2,8,10,11,12,13-hexahydro-14H-5,3-(azenometheno)tripyrazolo[3,4-f:3′,4′-j:4″,3″-n][1,4]oxazacyclopentadecin-14-yl]ethan-1-ol] | 0.53 | 0.25 | 0.72 | 1.38 |  |  |  |  |  |  | 
Cc1nn(C)c2c1-c1cc3c(n[nH]c3c(C)n1)/C=C/c1c(OCC#N)nn([C@@H](C)CO)c1CN(CC(F)F)C[C@H](C)O2 [Ex. 151, {[(10S,17E)-12-(2,2-difluoroethyl)-14-[(2S)-1-hydroxypropan-2-yl]-6,8,10,20-tetramethyl-2,10,11,12,13,14-hexahydro-8H-5,3-(azenometheno)tripyrazolo[3,4-f:3′,4′-j:4″,3″-n][1,4]oxazacyclopentadecin-16-yl]oxy}acetonitrile] |  |  |  |  | 0.42 | 2.04 | 4.89 | 1.55 | 26.6 | 3.24 | 
Cc1c2c(nn1C)CN(C)CCOc1c(cnn1C)-c1cc3c(n[nH]c3cn1)/C=C/2 [Ex. 73, (17E)-8,12,15,16-tetramethyl-2,10,11,12,13,15-hexahydro-8H-5,3-(azenometheno)tripyrazolo[3,4-f:3′,4′-j:4″,3″-n][1,4]oxazacyclopentadecine] |  |  |  |  | 0.24 | 72.6 | 5.53 | 23.7 | 564 |  | IC50 [11]: 35.8 nM
Cc1nn(C)c2c1-c1cc3c(n[nH]c3cn1)/C=C/c1c(OCC#N)nn(CCO)c1CN(C)C[C@@H](C)O2 [Ex. 42, {[(10R,17E)-14-(2-hydroxyethyl)-6,8,10,12-tetramethyl-2,10,11,12,13,14-hexahydro-8H-5,3-(azenometheno)tripyrazolo[3,4-f:3′,4′-j:4″,3″-n][1,4]oxazacyclopentadecin-16-yl]oxy}acetonitrile] | 0.56 | 0.29 | 0.83 | 0.35 |  |  |  |  |  |  | 
CCN1Cc2c(c(OCC#N)nn2[C@@H](C)CO)/C=C/c2n[nH]c3c(C)nc(cc23)-c2c(C)nn(C)c2O[C@@H](C)C1 [Ex. 148, {[(10S,17E)-12-ethyl-14-[(2S)-1-hydroxypropan-2-yl]-6,8,10,20-tetramethyl-2,10,11,12,13,14-hexahydro-8H-5,3-(azenometheno)tripyrazolo[3,4-f:3′,4′-j:4″,3″-n][1,4]oxazacyclopentadecin-16-yl]oxy}acetonitrile] |  |  |  |  | 0.29 | 1.94 | 1.76 | 0.76 | 40.5 | 2.9 | 
CCOc1nn([C@@H](C)CO)c2c1/C=C/c1n[nH]c3c(C)nc(cc13)-c1c(COC)nn(C)c1O[C@@H](C)CN(CC)C2 [Ex. 147, (2S)-2-[(10S,17E)-16-ethoxy-12-ethyl-6-(methoxymethyl)-8,10,20-trimethyl-2,8,10,11,12,13-hexahydro-14H-5,3-(azenometheno)tripyrazolo[3,4-f:3′,4′-j:4″,3″-n][1,4]oxazacyclopentadecin-14-yl]propan-1-ol] |  |  |  |  | 0.34 |  | 20.4 | 0.59 | 11.3 |  | 
[2H]C([2H])([2H])C([2H])([2H])Oc1nn([C@@H](C)CO)c2c1/C=C/c1n[nH]c3cnc(cc13)-c1c(C)nn(C)c1O[C@@H](C)CN(C)C2 [Ex. 87, (2S)-2-[(10S,17E)-16-[(^2H5)ethyloxy]-6,8,10,12-tetramethyl-2,8,10,11,12,13-hexahydro-14H-5,3-(azenometheno)tripyrazolo[3,4-f:3′,4′-j:4″,3″-n][1,4]oxazacyclopentadecin-14-yl]propan-1-ol] |  |  |  |  |  | 0.97 |  |  | 5.88 | 1.82 | IC50 ([5]; HCC827, 120 h): 0.23 nM; IC50 ([7]; NCI-H1975, 120 h): 0.57 nM; IC50 ([8]; PC-9, 120 h): 0.36 nM
